The text below walks through data of patent publication US20220273619A1, “PHARMACEUTICAL FORMULATIONS COMPRISING SODIUM PALMITOYL-L-PROLYL-L-PROLYLGLYCYL-L-TYROSINATE AND METHODS FOR PREPARING THE SAME” (Bridge Blctherapeutics, lnc., priority 2019, published 2022).

Converted amounts (≈) assume the structure as drawn. Where a name gives a salt, the structure may show the parent alone. Where a SMILES comes first, the peptide text is derived from it. The star is where a group is joined. Palmitoyl = CCCCCCCCCCCCCCCC(=O)* Bounds are passed on as bounds.

The nature of data set [1]: Solubility in water of other salts of Compound II. It counts as physicochemical.
Data set [2] is described as follows: Solubility at room temperature, manual dilution combined with visual observation. It counts as physicochemical. The note with it: for solubility: room temperature. The procedure: The solubility was tested in various solvents for palmitoyl-L-prolyl-L-prolyl-glycyl-L-tyrosine (Compound II). The solubility test was performed by manual dilution combined with visual observation.
The solubility was tested at room temperature in various solvents for Compound I. In addition, the solubility test was performed by manual dilution combined with visual observation. Specifically, 2 mg of Compound I was added to a 1.5 mL HPLC vial and continuously stirred at ambient temperature while the solvent was gradually added.

Data set [3] is described as follows: Stability test: impurities by HPLC after storage. It counts as physicochemical. The procedure: After the dosage forms prepared in the present invention were stored for a period of time in a long-term storage stability condition (25° C./60% RH) or an accelerated stability condition (40° C./75% RH), the content of individual impurities or total impurities was measured. The impurities were measured using a validated HPLC analysis method. The specific conditions are as follows.

Data set [4] in a line: Solubility by shaking at 25° C., filtration and HPLC of the filtrate. It counts as physicochemical. As for the experimental part: The solubility was measured by the following method. An appropriate amount of sample was placed in a 1.5 mL HPLC vial, and then 1.0 mL of solvent was added. The HPLC vial was shaken at 25° C. at a speed of 700 rpm, then the slurry was filtered, and the filtrate was analyzed by HPLC. In this case, the limit of quantification (LOQ) was 2 μg/mL.
In order to increase the solubility of palmitoyl-L-prolyl-L-prolyl-glycyl-L-tyrosine (Compound II) in water, the amorphous solid dispersions of Compound II were prepared, and then the solubility was measured.
In order to increase the solubility of palmitoyl-L-prolyl-L-prolyl-glycyl-L-tyrosine (Compound II) in water, a surfactant such as sodium lauryl sulfate (SLS) was added, and the solubility was measured.

The subject of a further data set is NF-κB. The note with it: cited from earlier work.
A further data set relates to interleukin-6. The note with it: cited from earlier work.
The nature of data set [5]: Solid-form observation of the disodium salt (hygroscopicity). It counts as physicochemical. The settings on record: could not be maintained in the form of the solid powder. The procedure: In the method for preparing Compound I, an excess of NaOH (for example; 4 equivalents) was added to prepare disodium palmitoyl-L-prolyl-L-prolyl-glycyl-L-tyrosinate.
The mark [6] stands for this setting: 1,4-dioxane, 1,4-dioxane, read-out: Solubility.
The mark [7] stands for this setting: 1-butanol, read-out: Solubility.
[8] abbreviates: 2-methyl tetrahydrofuran, read-out: Solubility.
Setting [9] is: ACN-H2O (1:1), read-out: Solubility.
Setting [10] is: N-methyl pyrrolidone, read-out: Solubility.
Where [11] appears, read: THF-H2O (1:1), read-out: Solubility.
Setting [12] is: acetone-H2O (1:2), read-out: Solubility.
[13] abbreviates: acetonitrile, read-out: Solubility.
[14] abbreviates: cyclohexane, read-out: Solubility.
The mark [15] stands for this setting: ethanol-H2O (1:1), read-out: Solubility.
Setting [16] is: ethanol-H2O (3:1), read-out: Solubility.
Setting [17] is: ethyl acetate, read-out: Solubility.
The mark [18] stands for this setting: isopropyl acetate, read-out: Solubility.
Where [19] appears, read: isopropyl alcohol, read-out: Solubility.
Setting [20] is: methanol-H2O (1:1), read-out: Solubility.
Setting [21] is: methanol-H2O (3:1), read-out: Solubility.
Setting [22] is: methyl ethyl ketone, read-out: Solubility.
Setting [23] is: methyl isobutyl ketone, read-out: Solubility.
[24] abbreviates: methyl t-butyl ether, read-out: Solubility.
The mark [25] stands for this setting: tetrahydrofuran, read-out: Solubility.
The mark [26] stands for this setting: SGF (pH = 1.2), 25° C., LOQ = 2 μg/mL.

Broadly, the solubility is the concentration that dissolves in the medium under given conditions. `CCCCCCCCCCCCCCCC(=O)N1CCC[C@H]1C(=O)N1CCC[C@H]1C(=O)NCC(=O)N[C@@H](Cc1ccc(O)cc1)C(=O)O` [Arginine Salt] (Palmitoyl-PPGY-OH): the solubility in data set [1] is less than 10000 µg/mL.
On to `CCCCCCCCCCCCCCCC(=O)N1CCC[C@H]1C(=O)N1CCC[C@H]1C(=O)NCC(=O)N[C@@H](Cc1ccc(O)cc1)C(=O)[O-].[Na+]` [Compound I, sodium palmitoyl-L-prolyl-L-prolyl-glycyl-L-tyrosinate] (Palmitoyl-PPGY-OH), for which the solubility in data set [2] (setting [6]) was 33300 to 50000 µg/mL; in data set [2] (setting [7]) it was 50000 to 100000 µg/mL; in data set [2] (setting [8]) it was greater than 100000 µg/mL; in data set [2] (setting [9]), 50000 to 100000 µg/mL; in data set [2] (DMF, read-out: Solubility) it was 20000 to 33300 µg/mL; in data set [2] (DMSO, read-out: Solubility) it was 50000 to 100000 µg/mL. Besides, the solubility in data set [2] (setting [10]) is 50000 to 100000 µg/mL; in data set [2] (setting [11]), 50000 to 100000 µg/mL; in data set [2] (setting [12]), 50000 to 100000 µg/mL; in data set [2] (acetone, read-out: Solubility) it was less than 1000 µg/mL; in data set [2] (setting [13]), less than 1000 µg/mL; in data set [2] (setting [14]), less than 1000 µg/mL. Further, the solubility is 50000 to 100000 µg/mL in data set [2] (setting [15]); 50000 to 100000 µg/mL in data set [2] (setting [16]); 50000 to 100000 µg/mL in data set [2] (ethanol, read-out: Solubility); less than 1000 µg/mL in data set [2] (setting [17]); less than 1000 µg/mL in data set [2] (heptane, read-out: Solubility); less than 1000 µg/mL in data set [2] (setting [18]). The solubility in data set [2] (setting [19]) was 50000 to 100000 µg/mL; in data set [2] (setting [20]) it was greater than 100000 µg/mL; in data set [2] (setting [21]) it was greater than 100000 µg/mL; in data set [2] (methanol, read-out: Solubility) it was greater than 100000 µg/mL; in data set [2] (setting [22]), 3300 to 5000 µg/mL; in data set [2] (setting [23]), 1200 to 1400 µg/mL. Moreover, the solubility is less than 1000 µg/mL in data set [2] (setting [24]); greater than 100000 µg/mL in data set [2] (setting [25]); 50000 to 100000 µg/mL in data set [2] (toluene, read-out: Solubility); no less than 100000 µg/mL in data set [2] (water, read-out: Solubility). The “water solubility of Compound I compared to that of Compound II in an acid form” value in data set [2] (water) is given as “tens of thousands of times or more”. Also, the “Stability of Compound I” value in data set [3] (in capsules of Table 26, 1 month, accelerated stability condition 40° C./75% RH) is “stable”; in data set [3] (in capsules of Table 31, 1 month, accelerated stability condition 40° C./75% RH), “stable”; in data set [3] (in capsules of Table 36, 6 months, long-term storage stability condition 25° C./60% RH) it was “stable”; in data set [3] (in capsules of Table 37, 6 months, accelerated stability condition 40° C./75% RH), “stable”.
As for `CCCCCCCCCCCCCCCC(=O)N1CCC[C@H]1C(=O)N1CCC[C@H]1C(=O)NCC(=O)N[C@@H](Cc1ccc(O)cc1)C(=O)O` [Compound II, Palmitoyl-L-prolyl-L-prolyl-glycyl-L-tyrosine] (Palmitoyl-PPGY-OH), the solubility result in data set [4] (1% Poloxamer 188 added, SGF (pH = 1.2), LOQ = 2 μg/mL) was “<LOQ”; in data set [4] (1% Poloxamer 188 added, Water, LOQ = 2 μg/mL), “<LOQ”; in data set [4] (5% Poloxamer 188 added, SGF (pH = 1.2), LOQ = 2 μg/mL) it was “<LOQ”; in data set [4] (5% Poloxamer 188 added, Water, LOQ = 2 μg/mL), “<LOQ”; in data set [4] (FaSSIF with 1% Poloxamer 188, 1% Poloxamer 188 added, FaSSIF, LOQ = 2 μg/mL, read-out: Solubility), 10 µg/mL (≈ 14.9 µM); in data set [4] (FaSSIF with 1% SLS, 1% SLS added, FaSSIF, LOQ = 2 μg/mL, read-out: Solubility), 1990 µg/mL (≈ 2970 µM). Moreover, the solubility in data set [4] (FaSSIF with 5% Poloxamer 188, 5% Poloxamer 188 added, FaSSIF, LOQ = 2 μg/mL, read-out: Solubility) was 10 µg/mL (≈ 14.9 µM); in data set [4] (FaSSIF with 5% SLS, 5% SLS added, FaSSIF, LOQ = 2 μg/mL, read-out: Solubility), 5090 µg/mL (≈ 7590 µM); in data set [4] (FaSSIF, 25° C., LOQ = 2 μg/mL), 10 µg/mL (≈ 14.9 µM); in data set [4] (setting [26]), “<LOQ”; in data set [4] (SGF with 1% SLS, pH 1.2, 1% SLS added, SGF (pH = 1.2), LOQ = 2 μg/mL, read-out: Solubility), 90 µg/mL (≈ 134 µM); in data set [4] (SGF with 5% SLS, pH 1.2, 5% SLS added, SGF (pH = 1.2), LOQ = 2 μg/mL, read-out: Solubility) it was 380 µg/mL (≈ 566 µM). For the same compound, the solubility entry in data set [4] (Water, 25° C., LOQ = 2 μg/mL) was “<LOQ”; in data set [4] (water with 1% SLS, 1% SLS added, Water, LOQ = 2 μg/mL, read-out: Solubility), 470 µg/mL (≈ 701 µM); in data set [4] (water with 5% SLS, 5% SLS added, Water, LOQ = 2 μg/mL, read-out: Solubility), 1920 µg/mL (≈ 2860 µM); in data set [4] (water, lower than the limit of quantification (LOQ), read-out: water solubility), less than 2 µg/mL; in data set [2] (setting [6]) it was less than 1000 µg/mL; in data set [2] (setting [7]) it was less than 1000 µg/mL. The solubility was less than 1000 µg/mL in data set [2] (setting [8]); less than 1000 µg/mL in data set [2] (setting [9]); 1000 to 5000 µg/mL in data set [2] (DMF, read-out: Solubility); 10000 to 25000 µg/mL in data set [2] (DMSO, read-out: Solubility); 1000 to 5000 µg/mL in data set [2] (setting [10]); 1000 to 5000 µg/mL in data set [2] (setting [11]). For the same compound, the solubility in data set [2] (Water) was less than 1000 µg/mL; in data set [2] (setting [12]), less than 1000 µg/mL; in data set [2] (acetone, read-out: Solubility) it was less than 1000 µg/mL; in data set [2] (setting [13]), less than 1000 µg/mL; in data set [2] (setting [14]) it was less than 1000 µg/mL; in data set [2] (setting [15]), less than 1000 µg/mL. Further, the solubility was less than 1000 µg/mL in data set [2] (setting [16]); less than 1000 µg/mL in data set [2] (ethanol, read-out: Solubility); less than 1000 µg/mL in data set [2] (setting [17]); less than 1000 µg/mL in data set [2] (heptane, read-out: Solubility); less than 1000 µg/mL in data set [2] (setting [18]); less than 1000 µg/mL in data set [2] (setting [19]). Moreover, the solubility in data set [2] (setting [20]) is less than 1000 µg/mL; in data set [2] (setting [21]) it was less than 1000 µg/mL; in data set [2] (methanol, read-out: Solubility) it was 1000 to 5000 µg/mL; in data set [2] (setting [22]), less than 1000 µg/mL; in data set [2] (setting [23]) it was less than 1000 µg/mL; in data set [2] (setting [24]), less than 1000 µg/mL. For the same compound, the solubility in data set [2] (setting [25]) is less than 1000 µg/mL; in data set [2] (toluene, read-out: Solubility), less than 1000 µg/mL; in data set [2] (water, read-out: Solubility), less than 1000 µg/mL. Further, the “inhibiting the activity of NF-κB” value in the data set on NF-κB is listed as “excellent effect”. In the data set on interleukin-6, the “inhibiting the expression of interleukin-6” value was “excellent effect”.
In the case of `CCCCCCCCCCCCCCCC(=O)N1CCC[C@H]1C(=O)N1CCC[C@H]1C(=O)NCC(=O)N[C@@H](Cc1ccc([O-])cc1)C(=O)[O-].[Na+].[Na+]` [Disodium Palmitoyl-L-prolyl-L-prolyl-glycyl-L-tyrosinate] (Palmitoyl-PPGY-OH), the Hygroscopicity result in data set [5] is “very hygroscopic”.
For `CCCCCCCCCCCCCCCC(=O)N1CCC[C@H]1C(=O)N1CCC[C@H]1C(=O)NCC(=O)N[C@@H](Cc1ccc(O)cc1)C(=O)O` [Meglumine Salt] (Palmitoyl-PPGY-OH), the solubility in data set [1] (read-out: Solubility) was less than 10000 µg/mL.
In the case of `CCCCCCCCCCCCCCCC(=O)N1CCC[C@H]1C(=O)N1CCC[C@H]1C(=O)NCC(=O)N[C@@H](Cc1ccc(O)cc1)C(=O)O` [Micronized Compound II] (Palmitoyl-PPGY-OH), the solubility in data set [4] (FaSSIF, 25° C., LOQ = 2 μg/mL) was 50 µg/mL (≈ 74.5 µM); in data set [4] (setting [26]), “<LOQ”; in data set [4] (Water, 25° C., LOQ = 2 μg/mL), “<LOQ”.
